Legend:
[1] = tested on: Nalm6; test: Cell growth kinetics with rapamycin, Nalm6; assay type: cell-based, human; conditions: RPM at different concentrations
Experimental: (§1) FIGS. 26A to 26E provide histograms and plots showing malignant B cell lines were sensitive to Rapamycin treatment in vitro. FIG. 26A provides histograms showing geometric median fluorescent intensity (MFI) of phosphorylated mTOR (pS2448), S6 (pS235/[…]) and 4EBP1 (pT36/T45) in JeKo-1, Raji and Nalm6 cell lines, as well as primary human monocytes and bulk lymphocytes. FIGS. 26B to 26D relate to an experiment where JeKo-1, Raji and Nalm6 cells were treated with DMSO or Rapamycin (RPM) and then analyzed for phosphorylation level of mTOR (FIG. 26B), S6 (FIG. 26C) and 4EBP1 (FIG. 26D). FIG. 26E provides plots showing JeKo-1, Raji and Nalm6 cell growth kinetics after treatment with DMSO or RPM at different concentrations. Symbols indicate mean and error bars show ±s.e.m.

[2] = tested on: JeKo-1; test: Cell growth kinetics with rapamycin, JeKo-1; assay type: cell-based, human; conditions: RPM at different concentrations
Experimental: as §1

[3] = tested on: JeKo-1.Luc cells; test: Anti-tumor efficacy model, JeKo-1.Luc; assay type: in vivo, NSG mice; conditions: RPM 1 mg kg^−1 daily for 2 weeks
Experimental: Immunocompromised NOD scid gamma (NSG) mice were implanted with 5E5 Jeko-1 tumor cells and the tumor cells were allowed to engraft for 6 days. After the six days of engraftment, 1E6 unedited or edited 19CAR-T cells were infused into tumor bearing mice (N=8 mice evaluated for each experimental condition) and administered daily for 2 weeks (dotted vertical lines) either a vehicle (5% PEG400+5% Tween80) or tacrolimus (10 mg/kg in 5% PEG400+5% Tween80). Tumor burden was assessed twice per week by measuring bioluminescence using an IVIS® spectral imaging instrument. In FIGS. 13A and 13B, each data point represents a measurement taken for an individual mouse.
For the study described in FIGS. 18A to 18G, NSG mice were intravenously injected with 5×10^5 JeKo-1.Luc cells at day 0. On day 7, mice initiated daily intraperitoneal injections of VEH, RPM (1 mg kg^−1), or TAC (10 mg kg^−1) for 2 weeks. […] For all studies, tumor burden was measured every 3-4 days post-implant by bioluminescence imaging (IVIS Spectrum, Spectral Instruments Imaging) 30 minutes after intraperitoneally injecting mice with 150 mg kg^−1 XenoLight D-Luciferin (PerkinElmer). The acquisition time was automatically determined by the instrument for each exposure, and quantification of flux from imaging datasets was performed with the Living Image Studio software (Perkin Elmer). […]

[4] = tested on: CD19^+ B cells; test: B cell aplasia and 19CAR-T cell persistence in HIS mice; assay type: in vivo, huCD34-NCG mice; conditions: TAC 10 mg kg^−1 daily; 10 days post-T cell infusion
Excerpt: FIGS. 19B and 19C provide a bar graph of cell concentration (FIG. 19B) and flow cytometry contour plots (FIG. 19C) for peripheral CD19^+ B cells 6 days post-T cell infusion from mice in Groups 1-4. FIGS. 19D and 19E provide bar graphs showing total CD19^+ B cells from individual mouse splenic (FIG. 19D) and bone marrow (FIG. 19E) tissue 10 days post-T cell infusion in Groups 1-4. FIG. 19F provides a bar graph showing geometric median fluorescent intensity (MFI) of CD19 expression on residual peripheral CD22^+ B cells 6 days post-T cell infusion from mice in Groups 1-4. FIG. 19G provides a bar graph showing concentration of peripheral CD22^+CD19^dim B cells 6 days post-T cell infusion from mice in Groups 1-4. […] Statistical significance was calculated by Wilcoxon rank sum test (FIGS. 19B, 19D, and 19E) and Kruskall-Wallace test with Dunn's test for multiple comparisons (FIGS. 19F, 19G, 19I, and 19J).
For the studies described in FIGS. 19A to 19J, huCD34-NCG mice were used in Cohort #6 (n=16), Cohort #7 (n=12), Cohort #8 (n=24), and Cohort #9 (n=12) and were evenly distributed into 4 groups via matched distribution based on degree of human T cell engraftment using StudyLog. […] Endogenous B cell aplasia and persistence of 19CAR-T cells was monitored at 7- and 11-days post-drug treatment via blood draw from the submandibular vein and tissue collection at necropsy.

| SMILES | in vitro proliferation [1] | in vitro proliferation [2] | JeKo-1 growth in control mice [3] | allorejection of HLA-I^+ 19CAR-T cells in peripheral blood and spleen [4] |
| --- | --- | --- | --- | --- |
| CO[C@H]1C[C@@H]2CC[C@@H](C)[C@@](O)(O2)C(=O)C(=O)N2CCCC[C@H]2C(=O)O[C@H]([C@H](C)C[C@@H]2CC[C@@H](O)[C@H](OC)C2)CC(=O)[C@H](C)/C=C(\C)[C@@H](O)[C@@H](OC)C(=O)[C@H](C)C[C@H](C)/C=C/C=C/C=C/1C [rapamycin, Rapamycin] | inhibited in vitro proliferation | inhibited in vitro proliferation | mitigated JeKo-1 growth in control mice |  |
| C=CC[C@@H]1/C=C(\C)C[C@H](C)C[C@H](OC)[C@H]2O[C@@](O)(C(=O)C(=O)N3CCCC[C@H]3C(=O)O[C@H](/C(C)=C/[C@@H]3CC[C@@H](O)[C@H](OC)C3)[C@H](C)[C@@H](O)CC1=O)[C@H](C)C[C@@H]2OC [tacrolimus, Tacrolimus] |  |  |  | protected HLA-I^+ 19CAR-T cells |
